Columns and labels:
Type in all cases: in vivo, C57BL/6J male mice
gastrocnemius tissue = assay: H&E and Sirius red staining of gastrocnemius tissue
Method: (§1) For morphological tissue observation, parts of liver and muscle tissues were fixed with a 10% formaldehyde solution for 24 hours. Thereafter, the samples were subjected to replacement with the same solution twice, dehydrated twice with ethanol, embedded in paraffin, and treated with poly-L-lysine to prepare tissue slices having a thickness of 5 μm. For morphological analysis, among the prepared tissue sections, the liver tissue was stained with H&E and MT, and the muscle tissue was stained with H&E and Sirius red, and magnified 200 times under an optical microscope. For IHC analysis, the muscle tissue was stained with IGF-1 and Myostatin, and then observed under an optical microscope.

[1] = tested on: CISH, CerS1, Adiponectin, Adipsin, CIDEC, Haptoglobin, Neuronatin, SCD1; assay: mRNA sequencing of gastrocnemius tissue (differentially expressed genes); settings: vs NC group, FC cutoff 2 or more, p < 0.05
[2] = tested on: hepatic glucose-6-phosphatase (G6P); assay: Hepatic glucose-6-phosphatase measurement; settings: DRH group vs NC group
myostatin = assay: IHC analysis of muscle tissue, myostatin; settings: gastrocnemius muscle fibers, increase in NC vs YC
Method: as §1

[3] = tested on: MyoD, Myf5, Myf6, Myogenin, Mef2, MuRF1, Atrogin1, FoxO3; assay: Real-time PCR of muscle strength-related genes
Method: After total RNA was isolated, total complementary DNA (cDNA) was synthesized. For real-time PCR analysis, template cDNA was diluted with RNAse-free water and used at a concentration of 25 ng/μL. Then, gene expression was analyzed using a QuantitTeck SYBR Green PCR kit (QIAGEN, Germany).
Each of the reaction solutions consisted of 10 μL of SYBR Green, 2 μL of a template, and 200 μM primers. RNAse-free water was added to a final volume of 20 μL, and reacted at 94° C. for 15 seconds, and then 58° C. and 72° C. for 30 seconds. The reaction solution was reacted 40 times at 65° C. for 30 seconds at 15 seconds per cycle. In this case, by monitoring the fluorescence signal for each cycle and analyzing the resulting threshold cycle (Ct), mRNA expression between the respective experimental groups was quantitatively analyzed using a CFX96 Real-time system (Bio-Rad, USA). GAPDH (Gene ID 14433) was used as an internal transcriptional marker, and the gene primers used for amplification were as follows: MyoD (myoblast determination protein 1, Gene ID 17927), Myf5 (Gene ID 17877), Myf6 (Gene ID 17878), Myogenin (Gene ID 17928), Mef2 (Gene ID 17260), MuRF1 (Gene ID […]), Atrogin1 (Gene ID 67731), FoxO3 (Gene ID 56484), CerS1 (Gene ID 93898(3)1), CIDEC1 (Gene ID 12700), SCD1 (Gene ID 20249), Adipsin (complement factor D, Gene ID 11537), Adiponectin (Gene ID 11450), Haptoglobin (Gene ID 15439), and Neuronatin (Gene ID 18111).

GSH, PON, GR = assay: Antioxidant enzyme activity in liver and plasma; settings: DRH supplementation; decrease in NC vs YC
Method: To analyze antioxidant activity, superoxide dismutase (SOD) activity was measured in an alkaline state by pyrogallol autoxidation using a modified method of Marklund et al. Also, catalase (CAT) activity was measured using a modified method of Aebi et al. Paraoxonase (PON) activity was measured using a modified method of Mackness et al. in order to measure an increase in absorbance of p-nitrophenol. Glutathione reductase (GR) activity was measured using a modified method of Pinto and Bartley, which was used to measure NADPH oxidation. Total glutathione (GSH) content was measured using a modified method of Ellman et al.

[4] = tested on: Akt, AMPK, PI3K, mTOR, PGC1-α, and phosphorylated variants thereof; assay: Western blotting of protein levels of muscle enhancement factors; settings: DRH group vs NC group
Method: The amount of cytoplasmic and membrane proteins was quantified according to the Bradford method. Thereafter, a protein load was applied onto a 10% SDS-polyacrylamide gel, transferred to a Tris-glycine electrophoresis buffer for an hour, and then electrophoresed. The positions of the bands were confirmed using a Ponceau solution, blocking (5% skim milk in TBS/0.1% Tween-20) was performed at room temperature for 60 minutes in order to reduce non-specific reactions to the membrane. Then, the samples were reacted with a primary antibody overnight at 4° C.
Each of the antibodies was reacted with 5% skim milk diluted in the following ratios: Rabbit anti-mouse PGC1-α (1:1,000; Santa Cruz, USA), rabbit anti-mouse α-tubulin (1:1,000; Cell Signaling Technology, USA), rabbit anti-mouse p-Akt (1:1,000; Cell Signaling Technology, USA), rabbit anti-mouse Akt (1:1,000; Cell Signaling Technology, USA), rabbit anti-mouse p-PI3K (1:1,000; Cell Signaling Technology, USA), rabbit anti-mouse PI3K (1:1,000; Cell Signaling Technology), rabbit anti-mouse mTOR (1:1,000; Cell Signaling Technology, USA), rabbit anti-mouse TNF-α (1:1,000; Cell Signaling Technology, USA), rabbit anti-mouse adiponectin (1:1,000; Cell Signaling Technology, USA), rabbit anti-mouse haptoglobin (1:1,000; Abcam, USA), rabbit anti-mouse SCD1 (1:1,000; Cell Signaling Technology, USA), goat anti-mouse CerS1 (1:1,000; Novus Biologicals Ltd., USA), and rabbit anti-mouse NF-κB (1:000; Cell Signaling Technology, USA). The protein bands were washed, and the membrane was then reacted with a primary antibody in a TBST buffer (25 mM Tris-base, 155 mM NaCl, 0.1% Tween-20) in the presence of anti-rabbit IgG (1:1,000; Amersham Ltd., UK) or anti-goat IgG (1:1,000; ABcam Inc., USA) secondary antibodies for 30 minutes, and reacted at room temperature for an hour. Then, the membrane was washed again with a TBST buffer for 30 minutes. Immunoreactive bands were developed on a film using an ECL kit (Pierce Chemical Co., IL) to check the bands in a final state.

[5] = decrease in NC vs YC, DRH vs NC significant

O=C(CO)[C@H](O)[C@H](O)[C@H](O)CO [DRH, D-ribo-2-hexulose]
progression of fibrosis (Sirius red staining) (gastrocnemius tissue; DRH group): reduced to that of the YC group
size of muscle fibers (H&E staining) (gastrocnemius tissue; reduction observed in NC group): improved
Adiponectin expression (mRNA-seq) [1]: down-regulated
Adipsin expression (mRNA-seq) [1]: down-regulated
CIDEC expression (mRNA-seq) [1]: down-regulated
CISH expression (mRNA-seq) [1]: up-regulated
CerS1 expression (mRNA-seq) [1]: up-regulated
Haptoglobin expression (mRNA-seq) [1]: down-regulated
Neuronatin expression (mRNA-seq) [1]: down-regulated
SCD1 expression (mRNA-seq) [1]: down-regulated
hepatic glucose-6-phosphatase (G6P) [2]: significantly increased
expression level of myostatin (myostatin): suppressed this increase to the level of the YC group
expression of Atrogin1 gene ([3]; all three groups (YC, NC, DRH)): no significant difference
expression of FoxO3 gene ([3]; all three groups (YC, NC, DRH)): no significant difference
expression of MuRF1 gene ([3]; all three groups (YC, NC, DRH)): no significant difference
expression of MyoD gene ([3]; all three groups (YC, NC, DRH)): no significant difference
expression of Myf5 gene [3, 5]: partially improved
expression of Myf6 gene [3, 5]: partially improved
expression of Myogenin gene [3, 5]: partially improved
liver GR activity (GSH, PON, GR): increased
liver GSH-Px activity (GSH, PON, GR): increased
liver PON activity (GSH, PON, GR): increased
plasma PON activity (GSH, PON, GR): increased
protein level of AMPK and phosphorylated variant [4]: significantly increased
protein level of Akt and phosphorylated variant [4]: significantly increased
protein level of PGC1-α [4]: significantly increased
protein level of PI3K and phosphorylated variant [4]: significantly increased
protein level of mTOR and phosphorylated variant [4]: significantly increased

— US12582614B2, “Composition for preventing, alleviating or treating sarcopenia, containing D-ribo-2-hexulose as active ingredient” (KYUNGPOOK NATIONAL UNIVERSITY INDUSTRY-ACADEMIC COOPERATION …, priority 2021, dated 2026)
